Data from ChEMBL document CHEMBL2440076, “New triarylpyrazoles as broad-spectrum anticancer agents: design, synthesis, and biological evaluation” (Eur J Med Chem, 2013).

Tests used:
Assay type in all cases: functional
OVCAR-4 [1] = test: Growth inhibition of human OVCAR4 cells assessed as cell growth at 3X10'-7 M after 48 hrs by sulforhodamine B assay; details: OVCAR-4, 48 h, read-out: Activity
RPMI-8226 = test: Growth inhibition of human RPMI8226 cells assessed as cell growth at 3X10'-5 M after 48 hrs by sulforhodamine B assay; details: RPMI-8226, 48 h, read-out: Activity
SW-620 = test: Growth inhibition of human SW620 cells assessed as cell growth at 3X10'-6 M after 48 hrs by sulforhodamine B assay; details: SW-620, 48 h, read-out: Activity
SF-539 [2] = test: Growth inhibition of human SF539 cells assessed as cell growth at 3X10'-7 M after 48 hrs by sulforhodamine B assay; details: SF-539, 48 h, read-out: Activity
TK-10 [3] = test: Growth inhibition of human TK10 cells assessed as cell growth at 3X10'-5 M after 48 hrs by sulforhodamine B assay; details: TK-10, 48 h, read-out: Activity
PC-3 = test: Growth inhibition of human PC3 cells assessed as cell growth at 3X10'-8 M after 48 hrs by sulforhodamine B assay; details: PC-3, 48 h, read-out: Activity
Malme-3M = test: Growth inhibition of human MALME-3M cells assessed as cell growth at 3X10'-9 M after 48 hrs by sulforhodamine B assay; details: read-out: Activity
MCF7 = test: Growth inhibition of human MCF7 cells assessed as cell growth at 3X10'-6 M after 48 hrs by sulforhodamine B assay; details: MCF7, 48 h, read-out: Activity
TK-10 [4] = test: Growth inhibition of human TK10 cells assessed as cell growth at 3X10'-9 M after 48 hrs by sulforhodamine B assay; details: TK-10, 48 h, read-out: Activity
SR = test: Growth inhibition of human SR cells assessed as cell growth at 3X10'-5 M after 48 hrs by sulforhodamine B assay; details: read-out: Activity
HL-60(TB) [5] = test: Growth inhibition of human HL-60(TB) cells assessed as cell growth at 3X10'-6 M after 48 hrs by sulforhodamine B assay; details: HL-60, 48 h, read-out: Activity
NCI-H522 [6] = test: Growth inhibition of human NCI-H522 cells assessed as cell growth at 3X10'-6 M after 48 hrs by sulforhodamine B assay; details: NCI-H522, 48 h, read-out: Activity
COLO 205 [7] = test: Growth inhibition of human COLO205 cells assessed as cell growth at 3X10'-6 M after 48 hrs by sulforhodamine B assay; details: COLO 205, 48 h, read-out: Activity
SN12C = test: Growth inhibition of human SN12C cells assessed as cell growth at 3X10'-6 M after 48 hrs by sulforhodamine B assay; details: read-out: Activity
SNB-19 [8] = test: Growth inhibition of human SNB19 cells assessed as cell growth at 3X10'-7 M after 48 hrs by sulforhodamine B assay; details: SNB-19, 48 h, read-out: Activity
OVCAR-3 [9] = test: Growth inhibition of human OVCAR3 cells assessed as cell growth at 3X10'-7 M after 48 hrs by sulforhodamine B assay; details: OVCAR-3, 48 h, read-out: Activity
SK-MEL-2 = test: Growth inhibition of human SK-MEL-2 cells assessed as cell growth at 3X10'-5 M after 48 hrs by sulforhodamine B assay; details: SK-MEL-2, 48 h, read-out: Activity
HL-60(TB) [10] = test: Growth inhibition of human HL-60(TB) cells assessed as cell growth at 3X10'-7 M after 48 hrs by sulforhodamine B assay; details: HL-60, 48 h, read-out: Activity
KM12 = test: Growth inhibition of human KM12 cells assessed as cell growth at 3X10'-5 M after 48 hrs by sulforhodamine B assay; details: KM12, 48 h, read-out: Activity
LOX IMVI = test: Growth inhibition of human LOXIMVI cells assessed as cell growth at 3X10'-8 M after 48 hrs by sulforhodamine B assay; details: read-out: Activity
K562 = test: Growth inhibition of human K562 cells assessed as cell growth at 3X10'-7 M after 48 hrs by sulforhodamine B assay; details: K562, 48 h, read-out: Activity
M14 = test: Growth inhibition of human M14 cells assessed as cell growth at 3X10'-9 M after 48 hrs by sulforhodamine B assay; details: M14, 48 h, read-out: Activity
NCI-H522 [11] = test: Growth inhibition of human NCI-H522 cells assessed as cell growth at 3X10'-5 M after 48 hrs by sulforhodamine B assay; details: NCI-H522, 48 h, read-out: Activity
HOP-62 = test: Growth inhibition of human HOP62 cells assessed as cell growth at 3X10'-6 M after 48 hrs by sulforhodamine B assay; details: HOP-62, 48 h, read-out: Activity
A498 = test: Growth inhibition of human A498 cells assessed as cell growth at 3X10'-5 M after 48 hrs by sulforhodamine B assay; details: A498, 48 h, read-out: Activity
[12] = Growth inhibition of human Hs 578T cells assessed as cell growth at 3X10'-9 M after 48 hrs by sulforhodamine B assay; details: read-out: Activity
RXF 393 = test: Growth inhibition of human RXF393 cells assessed as cell growth at 3X10'-9 M after 48 hrs by sulforhodamine B assay; details: RXF 393, 48 h, read-out: Activity
OVCAR-4 [13] = test: Growth inhibition of human OVCAR4 cells assessed as cell growth at 3X10'-8 M after 48 hrs by sulforhodamine B assay; details: OVCAR-4, 48 h, read-out: Activity
COLO 205 [14] = test: Growth inhibition of human COLO205 cells assessed as cell growth at 3X10'-5 M after 48 hrs by sulforhodamine B assay; details: COLO 205, 48 h, read-out: Activity
NCI-H23 = test: Growth inhibition of human NCI-H23 cells assessed as cell growth at 3X10'-7 M after 48 hrs by sulforhodamine B assay; details: NCI-H23, 48 h, read-out: Activity
OVCAR-3 [15] = test: Growth inhibition of human OVCAR3 cells assessed as cell growth at 3X10'-9 M after 48 hrs by sulforhodamine B assay; details: OVCAR-3, 48 h, read-out: Activity
SNB-19 [16] = test: Growth inhibition of human SNB19 cells assessed as cell growth at 3X10'-9 M after 48 hrs by sulforhodamine B assay; details: SNB-19, 48 h, read-out: Activity
OVCAR-4 [17] = test: Growth inhibition of human OVCAR4 cells assessed as cell growth at 3X10'-6 M after 48 hrs by sulforhodamine B assay; details: OVCAR-4, 48 h, read-out: Activity
UACC-257 = test: Growth inhibition of human UACC257 cells assessed as cell growth at 3X10'-6 M after 48 hrs by sulforhodamine B assay; details: UACC-257, 48 h, read-out: Activity
SF-539 [18] = test: Growth inhibition of human SF539 cells assessed as cell growth at 3X10'-6 M after 48 hrs by sulforhodamine B assay; details: SF-539, 48 h, read-out: Activity
NCI-H322M = test: Growth inhibition of human NCI-H322M cells assessed as cell growth at 3X10'-5 M after 48 hrs by sulforhodamine B assay; details: read-out: Activity

COc1cc(-c2nn(-c3cccc(NC(=O)c4ccc(Cl)c(C(F)(F)F)c4)c3)cc2-c2ccncc2)ccc1Cl
growth at 0.3 µM (OVCAR-4 [1]): 89% | growth at 30 µM (RPMI-8226): 5% | growth at 3 µM (SW-620): 55% | growth at 0.3 µM (SF-539 [2]): 91% | growth at 30 µM (TK-10 [3]): 44% | growth at 0.03 µM (PC-3): 92% | growth at 0.003 µM (Malme-3M): 80% | growth at 3 µM (MCF7): 42% | growth at 0.003 µM (TK-10 [4]): 90% | growth at 30 µM (SR): 4% | growth at 3 µM (HL-60(TB) [5]): 58% | growth at 3 µM (NCI-H522 [6]): 12% | growth at 3 µM (COLO 205 [7]): 74% | growth at 3 µM (SN12C): 68% | growth at 0.3 µM (SNB-19 [8]): 97% | growth at 0.3 µM (OVCAR-3 [9]): 98% | growth at 30 µM (SK-MEL-2): -10% | growth at 0.3 µM (HL-60(TB) [10]): 116% | growth at 30 µM (KM12): 17% | growth at 0.03 µM (LOX IMVI): 91% | growth at 0.3 µM (K562): 115% | growth at 0.003 µM (M14): 99% | growth at 30 µM (NCI-H522 [11]): -7% | growth at 3 µM (HOP-62): 73% | growth at 30 µM (A498): -9% | growth at 0.003 µM [12]: 93% | growth at 0.003 µM (RXF 393): 99% | growth at 0.03 µM (OVCAR-4 [13]): 103% | growth at 30 µM (COLO 205 [14]): -13% | growth at 0.3 µM (NCI-H23): 92% | growth at 0.003 µM (OVCAR-3 [15]): 104% | growth at 0.003 µM (SNB-19 [16]): 95% | growth at 3 µM (OVCAR-4 [17]): 62% | growth at 3 µM (UACC-257): 60% | growth at 3 µM (SF-539 [18]): 57% | growth at 30 µM (NCI-H322M): 34%

O=C(Nc1cccc(-n2cc(-c3ccncc3)c(-c3ccc(Cl)c(O)c3)n2)c1)Nc1ccc(Cl)c(C(F)(F)F)c1
growth at 0.3 µM (OVCAR-4 [1]): 94% | growth at 30 µM (RPMI-8226): -15% | growth at 3 µM (SW-620): 5% | growth at 0.3 µM (SF-539 [2]): 89% | growth at 30 µM (TK-10 [3]): -19% | growth at 0.03 µM (PC-3): 89% | growth at 0.003 µM (Malme-3M): 100% | growth at 3 µM (MCF7): 2% | growth at 0.003 µM (TK-10 [4]): 101% | growth at 30 µM (SR): -7% | growth at 3 µM (HL-60(TB) [5]): 6% | growth at 3 µM (NCI-H522 [6]): -11% | growth at 3 µM (COLO 205 [7]): 42% | growth at 3 µM (SN12C): 15% | growth at 0.3 µM (SNB-19 [8]): 98% | growth at 0.3 µM (OVCAR-3 [9]): 101% | growth at 30 µM (SK-MEL-2): -76% | growth at 0.3 µM (HL-60(TB) [10]): 138% | growth at 30 µM (KM12): -70% | growth at 0.03 µM (LOX IMVI): 99% | growth at 0.3 µM (K562): 88% | growth at 0.003 µM (M14): 100% | growth at 30 µM (NCI-H522 [11]): -55% | growth at 3 µM (HOP-62): 11% | growth at 30 µM (A498): -49% | growth at 0.003 µM [12]: 91% | growth at 0.003 µM (RXF 393): 101% | growth at 0.03 µM (OVCAR-4 [13]): 95% | growth at 30 µM (COLO 205 [14]): -90% | growth at 0.3 µM (NCI-H23): 93% | growth at 0.003 µM (OVCAR-3 [15]): 109% | growth at 0.003 µM (SNB-19 [16]): 96% | growth at 3 µM (OVCAR-4 [17]): 17% | growth at 3 µM (UACC-257): -22% | growth at 3 µM (SF-539 [18]): -14% | growth at 30 µM (NCI-H322M): -58%
